Test results taken from patent US4966894A, “Polysulfated heparins for treating diseases caused by retroviruses” (BASF Aktiengesellschaft, priority 1987, dated 1990).

Experiments:
[1] = tested on: reverse transcriptase from HIV I; assay: Enzyme test with reverse transcriptase from HIV I; type: biochemical; details: 50 μg/ml substance; 120 minutes at 37° C.; poly(rA)/oligo(dT)15 matrix, 3H-dTTP
Method: I. Enzyme test with reverse transcriptase from HIV I
In the model system described below, the activity of the reverse transcriptase is determined in the presence of an inhibitor, essentially according to Hansen et al. (J. Biol. Chem. 262 [1987], 12393).
The enzyme test has a total volume of 50 μl and contains the following components: 50 mM tris-HCl pH 7.8, 80 mM KCl, 8 mM MgCl2 and 1 mM DTT. This system contains the synthetic polymer poly(rA)/oligo (dT)15 (Boehringer Mannheim) as a matrix, in a concentration of 1 mg/ml. This matrix consists of a synthetic RNA having a length of 100-200 nucleotides,to which short DNA primers having a length of 15 nucleotides are bonded. The DNA primers serve as starting points for the reverse transcriptase. […]
The DNA bound to the exchanger is dried under an infrared lamp, after which the activity is determined by liquid scintillation measurement. The unspecific background is the radioactivity bound to the DEAE filter in the absence of reverse transcriptase in the method described above. […]
The activity of the reverse transcriptase in the presence of a potential inhibitor is expressed as a percentage of the activity in the absence of an inhibitor; or the inhibitory action of a substance (%) is defined as 100% minus the activity in percent.

[2] = tested on: reverse transcriptase of Schmidt-Ruppin D (SR-D) virus; details: German Laid-Open Application DOS No. 3,601,136; cited from earlier work
[3] = background statement; may induce hemorrhages; cited from earlier work
HIV = details: Antiviral Res. 7 [1987], 361; cited from earlier work
[4] = tested on: reverse transcriptase from HIV I; details: literature and own experiments, cf. Table 1; cited from earlier work

| Substance | Inhibition % [1] [%] | inhibition of reverse transcriptase of SR-D virus [2] | anticoagulant properties [3] | inhibition of HIV replication in vitro (HIV) | inhibitory action on reverse transcriptase of HIV I (in words) [4] |
| --- | --- | --- | --- | --- | --- |
| heparin [Unfractionated heparin] | 0 | – | – | – | – |
| heparin [Commercial heparin] | – | inhibits reverse transcriptase | has anticoagulant properties | selective inhibitor of HIV replication in vitro | could not, however, be confirmed |
